Source: US5298494A, “Monosaccharides having anti-proliferation and anti-inflammatory activity, compositions and uses thereof” (Greenwich Pharmaceuticals Incorporated, priority 1993, dated 1994)
Read-outs that look alike come from different tables or passages of the source.

Test system: T lymphocytes (normal mouse spleen cells) stimulated with ConA
Test: Mouse Spleen Cell ConA Blastogenesis Assay
Assay type: cell-based, mouse (C57Bl/6)
Details: Mus musculus, T-lymphocyte; for inhibition at 1 µg/mL: compound 1 ug/ml; for inhibition at 2.5 µg/mL: compound 2.5 ug/ml; for inhibition at 10 µg/mL: compound 10 ug/ml; for inhibition at 25 µg/mL: compound 25 ug/ml; for inhibition at 0.1 µg/mL: compound 0.1 ug/ml
Description: It is well known that several plant lectins, when cultured in vitro with lymphocytes, stimulate cellular activation and proliferation. Concanavolin, (ConA) selectively stimulates the blastogenic response of T lymphocytes.
Six to 8 week old male C57Bl/6 mice were purchased from Harlan Sprague Dawley (Indianapolis, Ind.).
Spleens were removed and were homogenized to obtain a single cell suspension. Erythrocytes were lysed by hypotonic shock. Upon determination of the viability and concentration of the lymphoid cells, they were adjusted to 4×10^6 cells/ml in culture medium (RPMI-1640) supplemented with 10% fetal bovine serum; 100 ug/ml streptomycin; 100 U/ml penicillin, 0.2M hepes buffer; 5×10^-5 M 2-mercaptoethanol and 2 mM glutamine). seeded into microtiter plate wells at 2×10^5 cells/0.050 ml/well. To these cultures were added various doses of experimental compounds and ConA at a final concentration of 4 or 1 ug/ml. Control cultures consisted of cells, ConA and culture medium containing the vehicle, DMSO only. […] For the testing of the methyl 1,3-O-isopropylidene-6-O-n-heptyl-α-D-fructofuranoside compound indomethacin and NDGA were used as controls. All cultures were run in triplicate.
Solutions of compounds of the invention in DMSO were prepared and dilutions were made in culture medium. Assay concentrations were either: 1, 2.5, 10, 25, 100, 300 and 750 ug/ml or 0.001, 0.01, 0.1, 1, 2.5, 10, 25 and 100 ug/ml.
Cultures were incubated for 3 days at 37° C. in a humidified atmosphere of 5% of CO2 in air. For the last 18 hours of culture, 1 uCi of ^3 H-thymidine was also incubated in each well. The cells were precipitated by a multi-channel harvester. The amount of ^3 H-thymidine incorporated by the cultures, as a measure of cell proliferation, was measured in a liquid scintillation counter. The amount of radioactive incorporation is proportional to the amount of cellular proliferation in individual wells. The students T test was used to determine the significance of the difference between experimental and control values.

[1] = ConA 1 ug/ml, read-out: % change from control, ConA blastogenic response
[2] = ConA 1 ug/ml, compound 100 ug/ml, read-out: % change from control, ConA blastogenic response
[3] = ConA 4 ug/ml, read-out: % change from control, ConA blastogenic response
[4] = ConA 4 ug/ml, compound 100 ug/ml, read-out: % change from control, ConA blastogenic response
[5] = ConA 1 ug/ml, 0.01 ug/ml, read-out: % Change from Control (Table II)
[6] = ConA 1 ug/ml, compound 0.01 ug/ml, read-out: % change from control, ConA blastogenic response
[7] = ConA 4 ug/ml, 0.01 ug/ml, read-out: % Change from Control (Table II)
[8] = ConA 4 ug/ml, compound 0.01 ug/ml, read-out: % change from control, ConA blastogenic response

Compound | inhibition at 100 µg/mL (100 ug/ml, read-out: strong inhibition of ConA stimulated T lymphocyte proliferation) [%] | inhibition at 1 µg/mL [1] [%] | inhibition at 2.5 µg/mL [1] [%] | inhibition at 10 µg/mL [1] [%] | inhibition at 25 µg/mL [1] [%] | inhibition at 100 µg/mL [2] [%] | inhibition at 1 µg/mL [3] [%] | inhibition at 2.5 µg/mL [3] [%] | inhibition at 10 µg/mL [3] [%] | inhibition at 25 µg/mL [3] [%] | inhibition at 100 µg/mL [4] [%] | inhibition at 0.01 µg/mL [5] [%] | inhibition at 0.01 µg/mL [6] [%] | inhibition at 0.1 µg/mL [1] [%] | inhibition at 0.01 µg/mL [7] [%] | inhibition at 0.01 µg/mL [8] [%] | inhibition at 0.1 µg/mL [3] [%]
CC1(C)OCC(C2OC3OC(C)(C)OC3C2NCCCO)O1 [IIk, 1,2:5,6-Di-O-isopropylidene-3-deoxy-3-amino-1'-(3'-hydroxy-n-propyl)-α-D-glucofuranose] | < 50 | 20 | 31 | 38 | 45 | 95 | 5 | 0 | 4 | 5 | 83 | – | – | – | – | – | –
CCCCCCCC(=O)O[C@@H]1[C@@H](CO)O[C@@]2(OC)COC(C)(C)O[C@@H]12 [Ih, methyl 1,3-O-isopropylidene-4-O-octanoyl-α-D-fructofuranoside] | – | -61 | -63 | 4 | -39 | 74 | -16 | -8 | 22 | 14 | 90 | -12 | -32 | -29 | -18 | -29 | -14
CCCCCCCC(=O)OC[C@H]1O[C@@]2(OC)COC(C)(C)O[C@H]2[C@@H]1OC(=O)CCCCCCC [Ij, methyl 1,3-O-isopropylidene-4,6-di-O-octanoyl-α-D-fructofuranoside] | – | 100 | 100 | 100 | 100 | 100 | -9 | 15 | 43 | 79 | 92 | 60 | 100 | 100 | 3 | -42 | 12
